Results taken from ChEMBL document CHEMBL1135585, “Mixed steroidal 1,2,4,5-tetraoxanes: antimalarial and antimycobacterial activity” (J Med Chem, 2002).
Values joined by “and” are separate entries in the source; they are usually repeats but may differ in a detail not shown here. Equal entries are not always repeated.

Columns and labels:
[1] = system: Mycobacterium tuberculosis; test: In vitro inhibitory activity against Mycobacterium tuberculosis strain H37Rv at a concentration of 6.25 ug/mL; format: functional
[2] = system: Mycobacterium tuberculosis; test: In vitro anti-mycobacterial activity against Mycobacterium tuberculosis strain H37Rv; format: functional
Vero = test: In vitro cytotoxicity against VERO cell line; format: functional, cell-based; details: Chlorocebus sabaeus
Plasmodium falciparum [3] = system: Plasmodium falciparum
Description: In vitro inhibitory activity against chloroquine-resistant Plasmodium falciparum W2 Indochina

Plasmodium falciparum [4] = system: Plasmodium falciparum; remark: listed apart in the source
Description: In vitro inhibitory activity against chloroquine-sensitive Plasmodium falciparum African D6

Row | Structure (SMILES) | inhibition at 6.25 µg/mL [1] [%] | MIC [2] | IC50 (Vero) | IC50 (Plasmodium falciparum [3]) [nM] | IC50 (Plasmodium falciparum [4]) [nM]
1 | CCCNC(=O)CCC(C)C1CC[C@H]2[C@@H]3[C@H](OC(C)=O)C[C@@H]4CC5(CC[C@]4(C)[C@H]3C[C@H](OC(C)=O)[C@]12C)OOC1(CCC(C)CC1)OO5 (stereo in doubt; 15) | 94 | 6.25 µg/mL and 9.25 µM | 8.34 µg/mL and 12.3 µM | 3.82 | 3.22
2 | CCNC(=O)CCC(C)C1CC[C@H]2[C@@H]3[C@H](OC(C)=O)C[C@@H]4CC5(CC[C@]4(C)[C@H]3C[C@H](OC(C)=O)[C@]12C)OOC1(CCC(C)CC1)OO5 (stereo in doubt; 14) | 98 | 3.13 µg/mL and 4.73 µM | 5.37 µg/mL and 8.11 µM | 3.93 | 5.8
3 | COC(=O)CCC(C)C1CC[C@H]2[C@@H]3[C@H](OC(C)=O)C[C@@H]4CC5(CC[C@]4(C)[C@H]3C[C@H](OC(C)=O)[C@]12C)OOC1(CCC(C)CC1)OO5 (stereo in doubt; 3g) | 29 | > 6.25 µg/mL and > 9.63 µM | – | 5.05 | 9.99
4 | CC(=O)O[C@H]1C[C@H]2[C@@H]([C@H](OC(C)=O)C[C@@H]3CC4(CC[C@@]32C)OOC2(CCC(C)CC2)OO4)[C@@H]2CCC(C(C)CCC(N)=O)[C@@]12C (stereo in doubt; 12) | 99 | 3.13 µg/mL and 4.94 µM | 3.49 µg/mL and 5.51 µM | 0.58 | 1.17
5 | CNC(=O)CCC(C)C1CC[C@H]2[C@@H]3[C@H](OC(C)=O)C[C@@H]4CC5(CC[C@]4(C)[C@H]3C[C@H](OC(C)=O)[C@]12C)OOC1(CCC(C)CC1)OO5 (stereo in doubt; 13) | 98 | 6.25 µg/mL and 9.65 µM | 5.69 µg/mL and 8.78 µM | 3.61 | 5.96
6 | CC(=O)O[C@H]1C[C@H]2[C@@H]([C@H](OC(C)=O)C[C@@H]3CC4(CC[C@@]32C)OOC2(CCC(C)CC2)OO4)[C@@H]2CCC(C(C)CCC(=O)O)[C@@]12C (stereo in doubt; 4g) | 21 | > 6.25 µg/mL and > 9.84 µM | – | 0.98 | 1.53
7 | NNC(=O)c1ccncc1 [ISONIAZID] | – | 0.05 µg/mL and 0.36 µM | > 1000 µg/mL and > 7 mM | – | –
8 | CO[C@H]1/C=C/O[C@@]2(C)Oc3c(C)c(O)c4c(O)c(c(/C=N/N5CCN(C)CC5)c(O)c4c3C2=O)NC(=O)/C(C)=C\C=C\[C@H](C)[C@H](O)[C@@H](C)[C@@H](O)[C@@H](C)[C@H](OC(C)=O)[C@@H]1C [RIFAMPIN] | – | 0.12 µg/mL and 0.15 µM | 111 µg/mL and 134 µM | – | –
